pIC50: −log10 of the molar value. Counter-ions that a name gives are not always drawn. Values belong to the molecule of their own block, whether it stands above or below them.
Experiments:
EBC-1 cells = test: EBC-1 cell proliferation experiment (CellTiter-Glo); assay type: cell-based, human; settings: Homo sapiens, EBC-1, 72 h, 3 days
Experimental: MEM medium, fetal bovine serum, penicillin/streptomycin antibiotics were purchased from Wisent. EBC-1 cell line was purchased from Nanjing COBIO Bioscience Co., LTD. Envision multi-label analyzer (PerkinElmer).
EBC-1 cells were seeded in a white 96-well plate, […] cell suspension per well, which contained 3000 EBC-1 cells. The cell plate was placed in a carbon dioxide incubator for overnight culture.
The compound to be tested was diluted 5-fold to the eighth concentration with a discharge gun, i.e., from 2 mM to […], and double duplicate wells experiment was set. 78 μL of the medium was added to the middle plate, then 2 μL per well of gradient diluted compound was transferred to the corresponding position on the middle plate, then mixed well and 20 μL per well was transferred to the cell plate. The cell plate was cultured in a carbon dioxide incubator for 3 days. Another cell plate was prepared and the signal values were read on the day of dosing as […] to be used in the data analysis. 25 μL of Promega CellTiter-Glo was added to each well of this cell plate, and incubated at room temperature for 10 minutes to stabilize the luminescence signal. Readings were taken using a PerkinElmer Envision multi-label analyzer.
25 μL of Promega CellTiter-Glo reagent was added to each well of this cell plate, and incubated at room temperature for 10 minutes to stabilize the luminescence signal. Readings were taken using a PerkinElmer Envision multi-label analyzer.
Using the equation (Sample-Min)/(Max-Min)*100% to convert the original data to the inhibition rate, the IC50 value can be obtained by curve fitting with four parameters (obtained by “log(inhibitor) vs. response in GraphPad Prism—Variable slope mode).

[1] = Pharmacokinetics of single intravenous and oral administration in dogs; assay type: in vivo; settings: for Vd / clearance / half-life / bioavailability: dog, plasma; for Vd / clearance / half-life / Exposure AUC: intravenous injection, 1 mg/kg; for Vd: read-out: Apparent volume of distribution; for clearance: read-out: Clearance rate; for half-life: read-out: Half-life (T1/2) (converted); for bioavailability / Exposure AUC0-last / Maximum blood concentration / Peak time: oral administration, 5 mg/kg
Experimental: The objective of this experiment was to study the pharmacokinetics (PK) of the test compound in different species after a single intravenous and a single oral administration.
After intravenous injection or oral administration, animal blood samples were collected and the actual blood collection time was recorded. Immediately after collection, blood samples were transferred to labeled centrifuge tubes containing K2-EDTA and subsequently centrifuged and processed to obtain plasma. Plasma was transferred to pre-cooled centrifuge tubes, snap-frozen in dry ice and stored in an ultra-low temperature refrigerator at −70±10° C. until LC-MS was performed.
Plasma drug concentration data of the compounds were processed using pharmacokinetic software with a non-compartmental model. The peak concentration (Cmax) and time to peak (Tmax), as well as the quantifiable end time, were obtained directly from the blood concentration-time diagram. The log-linear trapezoidal method was used to calculate the following pharmacokinetic parameters: half-life (T1/2), apparent volume of distribution (Vdss) and clearance rate (Cl), and the area under the time-plasma concentration curve from 0 points to the end time (AUC0-last), the initial concentration (C0).

[2] = test system: human lung cancer EBC-1 xenograft tumor; test: In vivo drug efficacy, human lung cancer EBC-1 xenograft tumor in nude mice; design: species or system BALB/c nude mice; settings: for Tumor volume: n = 6; for TGI (tumor growth inhibition rate) / TRTV/CRTV (relative tumor proliferation rate T/C): 25th day
Experimental: BALB/c nude mice, female, 6-8 weeks old, weighing about 18-20 grams, animals were raised in SPF-class animal rooms in IVC (independent air supply system, constant temperature and humidity) cages (3 per cage). All cages, bedding and water were disinfected before use. All animals had free access to standard certified commercial laboratory diets. A total of 36 mice purchased from Shanghai Lingchang Biotechnology Co., Ltd. were used for research. Each animal was inoculated with 0.1 mL (5×10^6 cells) of EBC-1 cells on the right back, when the average tumor volume reached 243 mm^3, the animals were randomly grouped and the administration was started. The test compound was orally administered daily, the dose of hydrochloride of compound 24 was 10 mg/kg, the two doses of hydrochloride of compound 25 were 10 mg/kg and 20 mg/kg, respectively, and the dose of hydrochloride of compound 29 was 10 mg/kg. The tumor diameter was measured with vernier calipers twice a week. The calculation formula of tumor volume was: V=0.5a×b^2, a and b represented the long diameter and short diameter of the tumor, respectively. The anti-tumor efficacy of the compound was evaluated by TGI (%) or the relative tumor proliferation rate T/C (%). Relative tumor proliferation rate T/C (%)=TRTV/CRTV×100% (TRTV: average RTV in the treatment group; CRTV: average RTV in the negative control group). The relative tumor volume (RTV) was calculated according to the results of tumor measurement, the calculation formula was RTV=Vt/V0, wherein V0 was the tumor volume measured at the time of the grouping administration (i.e. D0), Vt was the tumor volume at a certain measurement, and TRTV and CRTV were taken on the same day. TGI (%) reflected the tumor growth inhibition rate. TGI (%)=[(1−(average tumor volume of a certain treatment group after administration-average tumor volume of the treatment group at the beginning of administration))/(average tumor volume of the solvent control group after the administration-average tumor volume of the solvent control group at the beginning of the administration)]×100%. Statistical analysis was performed based on RTV data at the end of the experiment, and SPSS software was used for analysis.

Vd [1]: 14.6 L/kg
clearance [1]: 18.7 mL/min/kg
half-life [1]: 9.47 h
bioavailability [1]: 70.6%
Exposure AUC [1]: 1.34 µM·h
Exposure AUC0-last [1]: 4.74 µM·h
Maximum blood concentration [1]: 451 nM
Peak time [1]: 5 h
SMILES: CC(C)(O)CN1CCC(COc2cnc(-c3cccc(Cn4c(=O)ccn5c6cc(C#N)ccc6nc45)c3)nc2)CC1 [Hydrochloride of compound 39]
pIC50 (EBC-1 cells): 8.32

Vd [1]: 14.4 L/kg
clearance [1]: 24.2 mL/min/kg
half-life [1]: 7.87 h
bioavailability [1]: 57.7%
Exposure AUC [1]: 1.23 µM·h
Exposure AUC0-last [1]: 3.54 µM·h
Maximum blood concentration [1]: 246 nM
Peak time [1]: 4 h
SMILES: CC(C)N1CCC(COc2cnc(-c3cccc(Cn4c(=O)ccn5c6cc(C#N)ccc6nc45)c3)nc2)CC1 [Hydrochloride of compound 25]
Tumor volume ([2]; 10 mg/kg oral daily (stopped after 15 days), day 18, mean ± standard error): 34 ± 4 mm^3
Tumor volume ([2]; 10 mg/kg oral daily (stopped after 15 days), day 21, mean ± standard error): 44 ± 6 mm^3
Tumor volume ([2]; 10 mg/kg oral daily (stopped after 15 days), day 25, mean ± standard error): 83 ± 11 mm^3
Tumor volume ([2]; 10 mg/kg oral daily (stopped after 15 days), day 25, mean ± standard error, listed as hydrochloride of compound 25): 83 mm^3
Tumor volume ([2]; 10 mg/kg oral daily (stopped after 15 days), day 27, mean ± standard error): 120 ± 25 mm^3
TGI (tumor growth inhibition rate) ([2]; 10 mg/kg oral daily): 108.9%
TRTV/CRTV (relative tumor proliferation rate T/C) ([2]; 10 mg/kg oral daily): 4.3%
Tumor volume ([2]; 10 mg/kg oral daily, day 0, mean ± standard error): 243 ± 21 mm^3
Tumor volume ([2]; 10 mg/kg oral daily, day 4, mean ± standard error): 247 ± 20 mm^3
Tumor volume ([2]; 10 mg/kg oral daily, day 7, mean ± standard error): 162 ± 13 mm^3
Tumor volume ([2]; 10 mg/kg oral daily, day 11, mean ± standard error): 67 ± 9 mm^3
Tumor volume ([2]; 10 mg/kg oral daily, day 14, mean ± standard error): 46 ± 5 mm^3
Tumor volume ([2]; 20 mg/kg oral daily (stopped after 15 days), day 18, mean ± standard error): 4 ± 0 mm^3
Tumor volume ([2]; 20 mg/kg oral daily (stopped after 15 days), day 21, mean ± standard error): 4 ± 0 mm^3
Tumor volume ([2]; 20 mg/kg oral daily (stopped after 15 days), day 25, mean ± standard error): 4 ± 0 mm^3
Tumor volume ([2]; 20 mg/kg oral daily (stopped after 15 days), day 25, mean ± standard error, listed as hydrochloride of compound 25): 4 mm^3
Tumor volume ([2]; 20 mg/kg oral daily (stopped after 15 days), day 27, mean ± standard error): 2 ± 1 mm^3
TGI (tumor growth inhibition rate) ([2]; 20 mg/kg oral daily): 113.4%
TRTV/CRTV (relative tumor proliferation rate T/C) ([2]; 20 mg/kg oral daily): 0.2%
Tumor volume ([2]; 20 mg/kg oral daily, day 0, mean ± standard error): 244 ± 22 mm^3
Tumor volume ([2]; 20 mg/kg oral daily, day 4, mean ± standard error): 174 ± 12 mm^3
Tumor volume ([2]; 20 mg/kg oral daily, day 7, mean ± standard error): 100 ± 8 mm^3
Tumor volume ([2]; 20 mg/kg oral daily, day 11, mean ± standard error): 32 ± 3 mm^3
Tumor volume ([2]; 20 mg/kg oral daily, day 14, mean ± standard error): 12 ± 3 mm^3
pIC50 (EBC-1 cells): 8.73
